The target of experiment [1] is T1, TRKA (Homo sapiens, UniProt P04629).
T1 construct: purchased Carna Biosciences 08-186
Put plainly: In vitro biochemical HTRF KinEASE kinase inhibition, TRKA. The conditions noted are these: wild-type kinase, final ATP 3.727 μmol/L; read-out: TRKA IC50.

In experiment [2] the target is T2, TRKB (Homo sapiens, UniProt Q16620).
T2 construct: purchased Carna Biosciences 08-187
Put plainly: In vitro biochemical HTRF KinEASE kinase inhibition, TRKB. The conditions noted are these: wild-type kinase, final ATP 2.56 μmol/L. The method, then: The material and the method are as follows: wild-type kinases such as TRKA, TRKB and TRKC, and mutant kinases such as TRKA-G595R, TRKA-G667C, TRKA-F589L, TRKC-G623R and TRKC-G696A, and are derived from Carna Biosciences 08-186, 08-187, 08-197; HTRF KinEASE TKkit (Cisbio 62TKO PEC); 384 well plates (Greiner corporation); ATP (Life technologies PV 3227), MgCl2 (sigma); PHERAstar FS Multifunctional microplate reader (BMG Co.); low speed centrifuge (StaiteXiangyi corporation); incubator (Binder company).
Preparing a compound working solution: the dispensed compounds were removed from the freezer prior to testing and diluted to 100× concentration with pure DMSO; then the compound was diluted to the desired concentration of 4× with deionized water;
Preparation of 1.33× enzyme buffer (enzyme buffer): 5× enzyme buffer (from HTRF kit) was diluted to 1.33× with deionized water and the corresponding ingredients were added at a final concentration of 1.33×: 1.33 mmol/L Dithiothreitol (DTT), 1.33 mmol/L MnCl2, 6.65 mmol/L MgCl2 and 39.9 nmol/L SEB;
Preparation of a kinase working solution: TRKA, TRKB and TRKC were diluted with 1.33× enzyme buffer to the required concentrations of 2× of 0.404 ng/μL, 0.304 ng/μL and 0.236 ng/μL, respectively;
Preparing a substrate working solution: a mixture of TK Substrate Blr diluted to the desired final concentration of 4× (from HTRF kit) and ATP (10 mM) with 1.33× enzyme buffer; the final ATP concentrations for TRKA, TRKB, and TRKC were: 3.727 μmol/L, 2.56 μmol/L and 2.526 μmol/L. The TK Substrate-biotin (from HTRF KinEASE TKkit) final concentrations were all: 0.2 μmol/L.
Preparing a detection working solution: 16.67 μmol/L of Streptavidin-XL665 (Streptavidin-XL 665) were diluted to the desired final concentration of 4× with HTRF test buffer and then mixed with an equal volume of Antibody-europium Cryptate (Antibody-Cryptate) (both from HTRF kits).
An enzyme reaction step: add 4 μL of kinase working solution to each well of a low volume 384 microwell plate along with 4 μL of 1.33× enzyme buffer as a Negative control (Negative); add 2 μl of compound working solution to the wells, while adding 2 μl of […] aqueous solution as a zero compound concentration control (i.e., Positive control, Positive); incubating at 25° C. for 5 min; add 2 μL of substrate working solution to the wells to start the enzymatic reaction, shake the reaction for 30 min at 37° C.
HTRF reagent detection step: adding […] to the hole to terminate the reaction; reacting for 1 h at 25° C.;
Reading of HTRF signal: the PHERAstar FS reading is adopted to detect signals, and the corresponding setting of the instrument is as follows:
For the raw data read out per well, the ratio=665 nm/620 nm;
Calculation of inhibition rate:
Calculation of IC50 values: with the logarithm of the compound concentration as abscissa and the inhibition as ordinate, a non-linear curve was fitted in GraphPad Prism 5: log (inhibitor) vs. response—Variable slope, and calculating the concentration of the compound to be detected, namely IC50, when the enzyme activity inhibition rate is 50%.

The target of experiment [3] is T3, TRKC (Homo sapiens, UniProt Q16288).
T3 construct: purchased Carna Biosciences 08-197
Put plainly: In vitro biochemical HTRF KinEASE kinase inhibition, TRKC. The following applies: wild-type kinase, final ATP 2.526 μmol/L. A general note: Time-resolved FRET reads energy transfer from a long-lived donor to a nearby acceptor.

Experiment [4] concerns the target T4, TRKA-G595R (Homo sapiens, UniProt P04629, G595R).
T4 construct: purchased Carna Biosciences
Put plainly: TRK kinase mutant inhibition (HTRF), TRKA-G595R. Type of experiment: biochemical.

For experiment [5], the target named is T5, TRKA-G667C (Homo sapiens, UniProt P04629, G667C).
T5 construct: purchased Carna Biosciences
Put plainly: TRK kinase mutant inhibition (HTRF), TRKA-G667C. Type of experiment: biochemical.

The target of experiment [6] is T6, TRKA-F589L (Homo sapiens, UniProt P04629, F589L).
T6 construct: purchased Carna Biosciences
Put plainly: TRK kinase mutant inhibition (HTRF), TRKA-F589L. Type of experiment: biochemical.

The target of experiment [7] is T7, TRKC-G623R (Homo sapiens, UniProt Q16288, G623R).
T7 construct: purchased Carna Biosciences
Description: TRK kinase mutant inhibition (HTRF), TRKC-G623R. The class given is biochemical.

Experiment [8] addresses T8, TRKC-G696A (Homo sapiens, UniProt Q16288, G696A).
T8 construct: purchased Carna Biosciences
Put plainly: TRK kinase mutant inhibition (HTRF), TRKC-G696A. Type of experiment: biochemical.

Experimental findings from patent US20220177477A1 (Central China Normal University, priority 2019, published 2022) are described below.

As a reminder, the IC50 is the concentration needed to halve the response being measured.

T2 sequence (Q16620 32-822): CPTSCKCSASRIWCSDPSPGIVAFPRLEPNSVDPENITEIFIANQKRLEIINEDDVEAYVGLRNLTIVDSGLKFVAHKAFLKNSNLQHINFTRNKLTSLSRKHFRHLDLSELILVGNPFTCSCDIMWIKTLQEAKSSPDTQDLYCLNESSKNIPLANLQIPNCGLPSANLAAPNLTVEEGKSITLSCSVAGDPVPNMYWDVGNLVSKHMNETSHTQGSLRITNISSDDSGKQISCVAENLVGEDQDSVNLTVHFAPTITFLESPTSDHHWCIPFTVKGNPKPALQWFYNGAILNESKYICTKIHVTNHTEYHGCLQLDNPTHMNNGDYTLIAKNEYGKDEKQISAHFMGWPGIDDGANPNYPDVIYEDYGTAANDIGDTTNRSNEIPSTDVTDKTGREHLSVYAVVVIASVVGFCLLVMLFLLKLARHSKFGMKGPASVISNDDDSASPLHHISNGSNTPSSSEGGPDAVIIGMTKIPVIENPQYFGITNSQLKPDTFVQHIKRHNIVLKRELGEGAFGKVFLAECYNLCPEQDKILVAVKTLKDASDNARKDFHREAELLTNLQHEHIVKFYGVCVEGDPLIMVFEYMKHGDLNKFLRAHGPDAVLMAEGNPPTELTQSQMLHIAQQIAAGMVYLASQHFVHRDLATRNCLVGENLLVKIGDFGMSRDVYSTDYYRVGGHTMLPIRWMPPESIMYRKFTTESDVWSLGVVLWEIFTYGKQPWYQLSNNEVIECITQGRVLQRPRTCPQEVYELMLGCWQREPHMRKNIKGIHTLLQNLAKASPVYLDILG
T7 sequence (Q16288 32-839 G623R): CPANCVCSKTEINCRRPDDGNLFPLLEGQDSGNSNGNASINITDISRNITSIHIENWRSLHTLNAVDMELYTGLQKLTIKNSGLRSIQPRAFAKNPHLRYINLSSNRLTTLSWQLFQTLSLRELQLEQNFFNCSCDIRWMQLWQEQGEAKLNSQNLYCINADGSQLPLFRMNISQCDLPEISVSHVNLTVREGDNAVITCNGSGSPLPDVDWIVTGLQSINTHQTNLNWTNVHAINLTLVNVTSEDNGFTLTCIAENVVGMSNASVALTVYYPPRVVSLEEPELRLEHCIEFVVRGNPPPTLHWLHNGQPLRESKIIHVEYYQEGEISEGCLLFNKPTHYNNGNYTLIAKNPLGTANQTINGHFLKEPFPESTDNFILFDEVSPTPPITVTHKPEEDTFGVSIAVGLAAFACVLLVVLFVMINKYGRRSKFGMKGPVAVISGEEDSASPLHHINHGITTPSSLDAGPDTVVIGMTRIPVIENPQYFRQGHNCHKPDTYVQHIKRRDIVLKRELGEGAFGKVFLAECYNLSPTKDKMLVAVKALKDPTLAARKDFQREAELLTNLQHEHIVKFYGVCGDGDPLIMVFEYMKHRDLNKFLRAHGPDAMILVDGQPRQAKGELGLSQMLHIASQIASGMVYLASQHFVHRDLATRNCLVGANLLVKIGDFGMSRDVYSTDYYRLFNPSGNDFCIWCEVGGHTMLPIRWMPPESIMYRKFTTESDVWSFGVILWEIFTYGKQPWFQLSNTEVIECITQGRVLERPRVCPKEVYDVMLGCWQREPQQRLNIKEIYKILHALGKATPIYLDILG
T4 sequence (P04629 33-796 G595R): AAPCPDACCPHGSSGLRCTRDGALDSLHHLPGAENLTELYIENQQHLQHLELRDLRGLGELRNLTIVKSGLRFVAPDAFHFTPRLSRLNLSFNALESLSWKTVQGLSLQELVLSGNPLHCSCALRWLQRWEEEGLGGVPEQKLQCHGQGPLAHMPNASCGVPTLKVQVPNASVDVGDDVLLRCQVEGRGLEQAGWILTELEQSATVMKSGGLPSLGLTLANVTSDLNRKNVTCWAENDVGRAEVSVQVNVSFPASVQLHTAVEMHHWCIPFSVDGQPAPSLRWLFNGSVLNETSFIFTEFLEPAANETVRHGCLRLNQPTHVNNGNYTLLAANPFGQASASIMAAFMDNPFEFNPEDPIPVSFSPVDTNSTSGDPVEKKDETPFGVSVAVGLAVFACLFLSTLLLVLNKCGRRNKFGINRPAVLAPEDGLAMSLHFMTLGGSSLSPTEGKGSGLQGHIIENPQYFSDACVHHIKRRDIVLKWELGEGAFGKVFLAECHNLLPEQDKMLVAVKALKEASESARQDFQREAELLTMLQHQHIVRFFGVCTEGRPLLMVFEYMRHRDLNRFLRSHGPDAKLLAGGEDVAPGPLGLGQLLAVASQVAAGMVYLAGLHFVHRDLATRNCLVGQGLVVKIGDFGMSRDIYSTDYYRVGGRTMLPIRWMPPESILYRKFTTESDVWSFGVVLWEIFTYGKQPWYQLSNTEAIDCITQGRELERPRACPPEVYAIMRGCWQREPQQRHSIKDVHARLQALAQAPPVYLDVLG
T3 sequence (Q16288 32-825 isoform Q16288-3 limits assumed): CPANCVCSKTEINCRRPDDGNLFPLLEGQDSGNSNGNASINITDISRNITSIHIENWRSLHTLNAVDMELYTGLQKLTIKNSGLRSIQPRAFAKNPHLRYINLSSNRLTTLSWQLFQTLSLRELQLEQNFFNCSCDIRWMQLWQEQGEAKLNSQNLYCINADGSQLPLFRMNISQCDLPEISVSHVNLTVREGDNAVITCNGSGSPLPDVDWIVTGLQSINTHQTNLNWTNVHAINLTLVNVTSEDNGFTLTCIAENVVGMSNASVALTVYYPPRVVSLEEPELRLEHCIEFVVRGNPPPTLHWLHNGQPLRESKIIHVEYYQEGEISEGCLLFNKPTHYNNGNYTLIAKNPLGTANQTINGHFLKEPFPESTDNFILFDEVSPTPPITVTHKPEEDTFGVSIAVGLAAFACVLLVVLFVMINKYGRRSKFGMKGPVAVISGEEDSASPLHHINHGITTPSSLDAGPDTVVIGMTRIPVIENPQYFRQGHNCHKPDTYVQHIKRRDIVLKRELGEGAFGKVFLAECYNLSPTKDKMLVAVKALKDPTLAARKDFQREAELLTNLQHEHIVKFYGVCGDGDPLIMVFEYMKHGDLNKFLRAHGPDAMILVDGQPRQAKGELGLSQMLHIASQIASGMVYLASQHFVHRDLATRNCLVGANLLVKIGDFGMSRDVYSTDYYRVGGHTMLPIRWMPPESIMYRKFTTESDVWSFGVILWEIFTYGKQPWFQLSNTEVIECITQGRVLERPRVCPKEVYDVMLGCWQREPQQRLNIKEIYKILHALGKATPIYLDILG
T6 sequence (P04629 33-796 F589L): as the sequence (P04629 33-796 G595R) above, with F557L, R563G counted along it
T8 sequence (Q16288 32-839 G696A): as the sequence (Q16288 32-839 G623R) above, with R592G, G665A counted along it
T1 sequence (P04629 33-796): as the sequence (P04629 33-796 G595R) above, with R563G counted along it
T5 sequence (P04629 33-796 G667C): as the sequence (P04629 33-796 G595R) above, with R563G, G635C counted along it

For `CC(Nc1ccn2ncc(-c3cn[nH]c3)c2n1)c1ccccc1OCC(F)F` (centres unmarked) [Compound 16, N-(1-(2-(2,2-difluoroethoxy)phenyl)ethyl)-3-(1H-pyrazol-4-yl) pyrazolo [1,5-a] pyrimidin-5-amine], the IC50 in experiment [1] is 8.5 nM; in experiment [2], 8.6 nM; in experiment [3], 12.2 nM.

Take `CC(Nc1ccn2ncc(-c3cnn(C4CCCC4O)c3)c2n1)c1cc(F)ccc1O` (centres unmarked) [Compound a2-3, 4-fluoro-2-(1-((3-(1-(2-hydroxycyclopentyl)-1H-pyrazol-4-yl)pyrazolo [1,5-a]pyrimidin-5-yl)amino)ethyl) phenol]: the IC50 stood at 10.5 nM in experiment [1], 5.1 nM in experiment [2] and 8.5 nM in experiment [3].

Consider `C[C@@H](Nc1ccn2ncc(-c3cnn(C)c3)c2n1)c1cc(F)ccc1OC(F)F` [Compound a4-8], for which the IC50 in experiment [1] is 2.4 nM; in experiment [2], 1.5 nM; in experiment [3], 3.5 nM; in experiment [4], 1.2 nM; in experiment [5] it was 3.2 nM; in experiment [6], 0.4 nM. In addition, the IC50 in experiment [7] was found to be 2.9 nM; in experiment [8], 1.1 nM.

For `C[C@@H](Nc1ccn2ncc(-c3cnn(C)c3)c2n1)c1cc(F)ccc1OCCF` [Compound a10-17, (R)-N-(1-(5-fluoro-2-(2-fluoroethoxy)phenyl)ethyl)-3-(1-methyl-1H-pyrazol-4-yl) pyrazolo [1,5-a] pyrimidin-5-amine], the IC50 amounted to 2.3 nM in experiment [1], 1.5 nM in experiment [2] and 15.1 nM in experiment [3].

As for `CC(Nc1ccn2ncc(-c3cnn(C(F)F)c3)c2n1)c1cc(F)ccc1OCCF` (centres unmarked) [Compound a11-18, 3-(1-(difluoromethyl)-1H-pyrazol-4-yl)-N-(1-(5-fluoro-2-(2-fluoroethoxy)phenyl)ethyl) pyrazolo [1,5-a] pyrimidin-5-amine], the IC50 in experiment [1] is 10.9 nM; in experiment [4], 1.1 nM; in experiment [5] it was 1 nM; in experiment [6], 0.32 nM; in experiment [7], 0.93 nM; in experiment [8], 0.77 nM.

On to `C[C@@H](Nc1ccn2ncc(-c3cnn(C)c3)c2n1)c1cc(F)ccc1OCC(F)(F)F` [Compound a23-31, (R)-N-(1-(5-fluoro-2-(2,2,2-trifluoroethoxy)phenyl)ethyl)-3-(1-methyl-1H-pyrazol-4-yl) pyrazolo [1,5-a] pyrimidin-5-amine], for which the IC50 in experiment [1] came to 4 nM; in experiment [2], 3 nM; in experiment [3] it was 6.1 nM; in experiment [4] it was 1.5 nM; in experiment [5], 1.37 nM; in experiment [6] it was 0.38 nM. Besides, the half-inhibitory concentration (IC50) in experiment [7] was determined as 1.7 nM; in experiment [8], 0.88 nM.

Turning to `CC(Nc1ccn2ncc(-c3cnn(C)c3)c2n1)c1cc(F)ccc1OCC1CC1` (centres unmarked) [Compound a26-38, N-(1-(2-(cyclopropylmethoxy)-5-fluorophenyl)ethyl)-3-(1-methyl-1H-pyrazol-4-yl) pyrazolo [1,5-a] pyrimidin-5-amine], the IC50 is 11.5 nM in experiment [1], 6.7 nM in experiment [2] and 9.9 nM in experiment [3].

Regarding `CC(Nc1ccn2ncc(-c3cnn(C)c3)c2n1)c1cc(F)ccc1OC1CCOC1` (centres unmarked) [Compound a27-41, N-(1-(5-fluoro-2-((tetrahydrofuran-3-yl)oxy)phenyl)ethyl)-3-(1-methyl-1H-pyrazol-4-yl) pyrazolo [1,5-a] pyrimidin-5-amine], the IC50 was found to be 7.7 nM in experiment [1], 5.8 nM in experiment [2] and 7.1 nM in experiment [3].

In the case of `CC(Nc1ccn2ncc(-c3cn[nH]c3)c2n1)c1cc(F)ccc1OCF` (centres unmarked) [Compound b3-6, N-(1-(5-fluoro-2-(fluoromethoxy)phenyl)ethyl)-3-(1H-pyrazol-4-yl) pyrazolo [1,5-a] pyrimidin-5-amine], the IC50 was 18.1 nM in experiment [1], 13 nM in experiment [2] and 15.5 nM in experiment [3].

Regarding `CC(Nc1ccn2ncc(-c3cn[nH]c3)c2n1)c1cc(F)ccc1OC(F)F` (centres unmarked) [Compound b4-7, N-(1-(2-(difluoromethoxy)-5-fluorophenyl)ethyl)-3-(1H-pyrazol-4-yl) pyrazolo [1,5-a] pyrimidin-5-amine], the IC50 amounted to 3.37 nM in experiment [1], 3.1 nM in experiment [2] and 3.8 nM in experiment [3].

`CCOc1ccc(F)cc1C(C)Nc1ccn2ncc(-c3cn[nH]c3)c2n1` (centres unmarked) [Compound b5-11, N-(1-(2-ethoxy-5-fluorophenyl)ethyl)-3-(1H-pyrazol-4-yl) pyrazolo [1,5-a]pyrimidin-5-amine]: the IC50 is 8.4 nM in experiment [1], 4.3 nM in experiment [2] and 8.4 nM in experiment [3].

For `C[C@@H](Nc1ccn2ncc(-c3cn[nH]c3)c2n1)c1cc(F)ccc1OCCF` [Compound b7-16, (R)-N-(1-(5-fluoro-2-(2-fluoroethoxy)phenyl)ethyl)-3-(1H-pyrazol-4-yl) pyrazolo [1,5-a] pyrimidin-5-amine], the IC50 in experiment [1] turned out to be 2.5 nM; in experiment [2], 2.5 nM; in experiment [3] it was 3 nM; in experiment [4], 1.1 nM; in experiment [5] it was 1 nM; in experiment [6] it was 0.32 nM. Besides, the IC50 in experiment [7] is 0.93 nM; in experiment [8], 0.77 nM.

On to `CCCOc1ccc(F)cc1C(C)Nc1ccn2ncc(-c3cn[nH]c3)c2n1` (centres unmarked) [Compound b9-33, N-(1-(5-fluoro-2-propoxyphenyl)ethyl)-3-(1H-pyrazol-4-yl) pyrazolo [1,5-a] pyrimidin-5-amine], for which the values for the IC50 in experiment [1], in experiment [2] and in experiment [3] were 6 nM, 5.5 nM and 12.2 nM, respectively.

Regarding `CC(Nc1ccn2ncc(-c3cn[nH]c3)c2n1)c1cc(F)ccc1OCCCF` (centres unmarked) [Compound b10-34, N-(1-(5-fluoro-2-(3-fluoropropoxy)phenyl)ethyl)-3-(1H-pyrazol-4-yl) pyrazolo [1,5-a] pyrimidin-5-amine], the IC50 was 9.7 nM in experiment [1], 9.8 nM in experiment [2] and 14.1 nM in experiment [3].

For `CC(Nc1ccn2ncc(-c3cn[nH]c3)c2n1)c1cc(F)ccc1OC1CCCC1` (centres unmarked) [Compound b13-39, N-(1-(2-(cyclopentyloxy)-5-fluorophenyl)ethyl)-3-(1H-pyrazol-4-yl) pyrazolo [1,5-a] pyrimidin-5-amine], the IC50 in experiment [1] was 7.9 nM; in experiment [2] it was 5.9 nM; in experiment [3] it was 8 nM.

`CC(Nc1ccn2ncc(-c3cn[nH]c3)c2n1)c1cc(F)ccc1OC1CCOC1` (centres unmarked) [Compound b14-40, N-(1-(5-fluoro-2-((tetrahydrofuran-3-yl)oxy)phenyl)ethyl)-3-(1H-pyrazol-4-yl) pyrazolo [1,5-a] pyrimidin-5-amine]: the IC50 in experiment [1] is 4.51 nM; in experiment [2], 8.6 nM; in experiment [3], 11.7 nM.

As for `CC(Nc1ccn2ncc(-c3cn[nH]c3)c2n1)c1cc(F)cc(OCC(F)F)c1` (centres unmarked) [Control Compound C, reference compound], the IC50 in experiment [1], in experiment [2], in experiment [3], in experiment [4], in experiment [5] and in experiment [6] was greater than 1000 nM in each case. In addition, the IC50 in experiment [7] and in experiment [8] was greater than 1000 nM each time.
